{
  "source": "paper PMC11945486",
  "about": "“TAS1R2/TAS1R3 Single-Nucleotide Polymorphisms Affect Sweet Taste Receptor Activation by Sweeteners: The SWEET Project” (Nutrients, 2025)",
  "molecular_target": "T1, human TAS1R2-R317G (subunit alone) (Homo sapiens, UniProt Q8TE23, R317G)",
  "T1 construct": "expressed in transfected cells; host or cells: HEK293T-Gα16gust44",
  "T1 sequence (Q8TE23 20-839 R317G)": "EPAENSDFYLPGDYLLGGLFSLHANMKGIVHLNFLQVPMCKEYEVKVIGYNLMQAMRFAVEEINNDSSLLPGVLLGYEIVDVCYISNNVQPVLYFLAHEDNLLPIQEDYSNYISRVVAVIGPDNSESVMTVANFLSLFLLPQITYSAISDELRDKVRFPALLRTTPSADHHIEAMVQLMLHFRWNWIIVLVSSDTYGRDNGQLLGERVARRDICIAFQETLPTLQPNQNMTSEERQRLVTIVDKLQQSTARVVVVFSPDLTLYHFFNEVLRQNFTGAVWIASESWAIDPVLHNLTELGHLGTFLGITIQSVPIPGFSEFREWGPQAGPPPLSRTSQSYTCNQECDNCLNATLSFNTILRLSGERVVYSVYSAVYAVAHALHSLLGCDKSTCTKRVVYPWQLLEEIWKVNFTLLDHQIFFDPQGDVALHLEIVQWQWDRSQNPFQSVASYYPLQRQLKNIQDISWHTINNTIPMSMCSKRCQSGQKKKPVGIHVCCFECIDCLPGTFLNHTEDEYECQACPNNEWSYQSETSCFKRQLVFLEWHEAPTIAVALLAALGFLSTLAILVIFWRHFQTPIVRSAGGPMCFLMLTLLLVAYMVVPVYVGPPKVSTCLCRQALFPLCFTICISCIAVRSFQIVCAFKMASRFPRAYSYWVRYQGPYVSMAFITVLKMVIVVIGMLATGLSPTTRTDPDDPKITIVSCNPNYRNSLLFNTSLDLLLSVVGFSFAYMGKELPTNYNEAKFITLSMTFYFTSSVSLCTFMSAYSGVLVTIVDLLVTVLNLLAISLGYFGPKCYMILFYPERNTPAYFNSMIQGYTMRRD",
  "assay": "Calcium mobilisation assay, TAS1R2-R317G subunit alone",
  "format": "cell-based",
  "source_text": "The coding sequences for TAS1R2 and TAS1R3 were commercially synthesised, and the human codon was optimised for expression in human cells. The coding sequences of human TAS1R2 and TAS1R3 were subcloned and inserted into the mammalian expression vectors pcDNA6/myc-HisA and pcDNA4/myc-HisA (Invitrogen; Thermo Fisher Scientific; Illkirch, France) between the EcoRI and NotI restriction sites, generating the plasmids pcDNA6-TAS1R2 and pcDNA4-TAS1R3, respectively. To increase protein expression in mammalian cells, an upstream start codon was used, which was a sequence called MAX, corresponding to the QBI SP163 element also described in pcDNA4-HisMax (Invitrogen; Thermo Fisher Scientific; Illkirch, France). To measure the expression level of the receptor by immunohistochemistry, we used the FLAG sequence ([…]) in the C-terminal position, which encodes the FLAG tag epitope. […]\nThe HEK293T cells were kindly provided by Jay P. Slack (Givaudan Flavors Corporation; Cincinnati, OH, USA). […] The fluorescence intensity was measured for 90 s (excitation 488 nm, emission 510 nm) in an automated fluorometric FlexStation®3 Multi-Mode microplate reader (Molecular Devices; San Jose, CA, USA). […] The Ca^2+ changes were expressed as fractional changes in fluorescent light intensity: ΔF/F = (F − F0)/F0, where F was the fluorescent light intensity at each point, and F0 was the value of emitted fluorescent light prior to stimulus application. To calculate dose–response relationships, the changes in fluorescence upon stimulus application were averaged, mock-subtracted and baseline-corrected. […] The half-maximal effective concentrations (EC50 values) and maximal signal amplitudes were calculated using SigmaPlot software (version 15.0) (Systat Software; San Jose, CA, USA).\nFor in vitro calcium mobilisation assay performed on hTAS1R2-SNPs, hTAS1R3-SNPs and mTAS1R3-I60T, 6 to 7 concentrations were tested for each sweet compound, plus buffer alone. All concentration–receptor combinations were measured in duplicate, and each experiment was repeated at least 4 times (8 wells/concentration). […]",
  "data": [
    {"smiles": "C=C(C)[C@@H]1CC=C(/C=N/O)CC1", "note": "[Perillartine, perillartine]", "values": [
      {"measurement": "EC50", "result": "225 ± 31.9", "unit": "µM"},
      {"measurement": "R1 = Variant EC50/WT EC50", "result": 2.5},
      {"measurement": "Max ΔF/F0", "setting": "maximal signal amplitude", "result": "0.17 ± 0.01"}
    ]}
  ]
}
